From patent US20260176258A1, “A THIOETHER COMPOUND HAVING SOFT DRUG PROPERTIES, A PHARMACEUTICAL COMPOSITION AND USE THEREOF” (Prime Gene Therapeutics Co., Ltd., priority 2022, published 2026)
Blank lines part the entries; values can stand above or below the molecule they belong to.

Key:
hTRPV3 = biological target: T1, hTRPV3 (Homo sapiens, UniProt Q8NET8); assay: Whole cell patch clamp of TRPV3 current in HEK-293 cells instantaneously expressing TRPV3; format: cell-based; conditions: for inhibition at 0.3 µM: HEK293, single concentration 0.3 μM, patch clamp, read-out: Inhibition rate on hTRPV3
T1 construct: expressed in transfected cells; host or cells: HEK-293
T1 sequence (Q8NET8 1-790): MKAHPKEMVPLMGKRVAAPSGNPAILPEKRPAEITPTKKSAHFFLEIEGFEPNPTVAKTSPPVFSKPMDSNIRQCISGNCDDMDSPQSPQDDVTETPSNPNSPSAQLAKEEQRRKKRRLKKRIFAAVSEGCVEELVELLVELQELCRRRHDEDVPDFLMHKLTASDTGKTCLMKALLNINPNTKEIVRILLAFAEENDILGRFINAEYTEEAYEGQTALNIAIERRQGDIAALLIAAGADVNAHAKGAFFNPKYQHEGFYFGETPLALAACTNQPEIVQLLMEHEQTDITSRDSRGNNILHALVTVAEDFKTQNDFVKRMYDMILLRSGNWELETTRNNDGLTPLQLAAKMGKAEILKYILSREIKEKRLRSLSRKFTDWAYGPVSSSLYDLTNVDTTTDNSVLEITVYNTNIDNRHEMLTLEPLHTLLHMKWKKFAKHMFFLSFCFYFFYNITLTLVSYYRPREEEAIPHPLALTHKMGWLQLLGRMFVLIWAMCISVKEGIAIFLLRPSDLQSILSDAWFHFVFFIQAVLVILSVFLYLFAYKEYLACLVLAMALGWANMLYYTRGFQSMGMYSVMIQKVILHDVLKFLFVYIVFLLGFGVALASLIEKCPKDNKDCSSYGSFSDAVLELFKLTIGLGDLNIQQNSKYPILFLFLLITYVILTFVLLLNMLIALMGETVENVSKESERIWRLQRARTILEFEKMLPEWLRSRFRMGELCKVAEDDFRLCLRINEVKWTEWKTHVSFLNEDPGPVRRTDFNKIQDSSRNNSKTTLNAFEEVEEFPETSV
Method: In this study, HEK-293 cells instantaneously expressing TRPV3 were used for experimental detection.
The operation steps are as follows:
The cells were cultured in DMEM medium containing 10% fetal bovine serum at a temperature of 37° C. and a carbon dioxide concentration of 5%.
Day 1: Cells were inoculated into a 6-well plate with 5×10^5 cells per well.
Day 2: Transfection was performed using Lipofectamine 3000 transfection reagent, with a plasmid to transfection reagent ratio of 1 μg: 2 μL. The total amount of plasmid used per well was 3 μg. Specifically, two sterile centrifuge tubes were taken and 100 μL Opti-MEM was added to each tube. 6 μL Lipofectamine 3000 was added to one tube and mixed well; and 3 μg plasmid was added to another tube and mixed well, and then 6 μL P3000 was added and mixed well; after that, the diluted plasmid DNA was addeds to diluted Lipofectamine 3000 and incubated at room temperature for 10-15 min. DNA liposome complex was dropped into the cells, shaked gently and mixed well, and then cultured in an incubator. The liquid was changed after 4 to 6 h.
Day 3: The cells were digested and seeded into 24 well plates with pre-placed cover slides, with 8×10^3 cells per well.
Day 4: Patch clamp testing was performed.
The voltage stimulation protocol for recording TRPV3 current using whole cell patch clamp is as follows: after forming a whole cell seal, a cell membrane voltage clamp was set at −80 mV. Firstly, a membrane potential was recorded at 0 mV, and then a voltage was command to start from −100 mV, to depolarize in the form of Ramp to 100 mV within 100 ms, and finally restore to 0 mV. Data collection was repeated every 5 seconds to observe the inhibitory effect of pharmaceutical on peak current. Experimental data was collected by EPC 10 amplifier (HEKA) and stored in PatchMaster (HEKA) software.
A microelectrode puller was used to pull the capillary glass tube into a recording electrode. The electrode filled with intracellular fluid was inserted into a microelectrode holder, and a microelectrode manipulator was operated under an inverted microscope to immerse the electrode in extracellular fluid and an electrode resistance (Rpip) was recorded. The electrode was brought into contact with the cell surface and a negative pressure suction was applied to form a high resistance seal (GΩ). At this point, a fast capacitance compensation was performed, and negative pressure was continued to apply in order to break the cell membrane, so that a whole cell recording mode was formed. Then, a slow capacitance compensation was performed and experimental parameters such as film capacitance (Cm) and series resistance (Rs) were recorded. No leakage compensation was provided.
When the TRPV3 current recorded by the whole cell had stabilized, administration was started. Each pharmaceutical concentration acted for 5 minutes (or until the current stabilized) before detecting the next concentration. A plurality of concentrations was tested for each test compound. A cover glass covered with cells was placed in a recording bath under an inverted microscope. A blank control extracellular solution and a working fluid for the compound to be tested sequentially flowed through the recording bath from low concentration to high concentration using gravity perfusion to act on the cells. Liquid exchange was performed using a peristaltic pump during recording. The current detected by each cell in the extracellular fluid without the compound served as its own control group. Each concentration was independently tested twice using at least two cells. All electrophysiological tests were conducted at room temperature.

hTRPV1 = hTRPV1 (Homo sapiens, UniProt Q8NER1); assay: Patch clamp method, hTRPV1; format: cell-based
hTRPV4 = hTRPV4 (Homo sapiens, UniProt Q9HBA0); assay: Patch clamp method, hTRPV4; format: cell-based
hTRPA1 = hTRPA1 (Homo sapiens, UniProt O75762); assay: Patch clamp method, hTRPA1; format: cell-based
[1] = Liver microsome metabolism stability test, human; format: in vitro ADME; conditions: human liver microsomes 0.5 mg/mL, 1 μM compound, 37° C.
Method: (§1) Two separate experiments were conducted. a) NADPH: 10 μL of 20 mg/mL liver microsomes and 40 μL of 10 mM NADPH were added to a culture medium. The final concentrations of microsomes and NADPH were 0.5 mg/mL and 1 mM, respectively. b) NADPH free: 10 μL of 20 mg/mL liver microsomes and 40 μL of ultrapure H2O were added to a culture medium. The final concentration of microsomes was 0.5 mg/mL.
(§2) At the beginning of the reaction, 4 μL of 100 μM test compound solution or a control compound solution with a final concentration of 1 μM were added, and proceed at 37° C.
(§3) 50 μL aliquots were taken from the reaction solution at 0, 7, 15, 30, and 60 minutes. The reaction was stopped by adding 4 volumes of cold acetonitrile and IS (100 nM alprazolam, 200 nM labetalol, 200 nM caffeine, and 2 μM ketoprofen). The samples were centrifuged at 3220 grams for 40 minutes. 100 μL supernatant divided equally was mixed with 100 μL of ultrapure H2O, and use for LC-MS/MS analysis.

[2] = Liver microsome metabolism stability test, rat; format: in vitro ADME; conditions: rat liver microsomes 0.5 mg/mL, 1 μM compound, 37° C.
Method: as §1, §2, §3

hTRPV1, sequence (Q8NER1 whole entry): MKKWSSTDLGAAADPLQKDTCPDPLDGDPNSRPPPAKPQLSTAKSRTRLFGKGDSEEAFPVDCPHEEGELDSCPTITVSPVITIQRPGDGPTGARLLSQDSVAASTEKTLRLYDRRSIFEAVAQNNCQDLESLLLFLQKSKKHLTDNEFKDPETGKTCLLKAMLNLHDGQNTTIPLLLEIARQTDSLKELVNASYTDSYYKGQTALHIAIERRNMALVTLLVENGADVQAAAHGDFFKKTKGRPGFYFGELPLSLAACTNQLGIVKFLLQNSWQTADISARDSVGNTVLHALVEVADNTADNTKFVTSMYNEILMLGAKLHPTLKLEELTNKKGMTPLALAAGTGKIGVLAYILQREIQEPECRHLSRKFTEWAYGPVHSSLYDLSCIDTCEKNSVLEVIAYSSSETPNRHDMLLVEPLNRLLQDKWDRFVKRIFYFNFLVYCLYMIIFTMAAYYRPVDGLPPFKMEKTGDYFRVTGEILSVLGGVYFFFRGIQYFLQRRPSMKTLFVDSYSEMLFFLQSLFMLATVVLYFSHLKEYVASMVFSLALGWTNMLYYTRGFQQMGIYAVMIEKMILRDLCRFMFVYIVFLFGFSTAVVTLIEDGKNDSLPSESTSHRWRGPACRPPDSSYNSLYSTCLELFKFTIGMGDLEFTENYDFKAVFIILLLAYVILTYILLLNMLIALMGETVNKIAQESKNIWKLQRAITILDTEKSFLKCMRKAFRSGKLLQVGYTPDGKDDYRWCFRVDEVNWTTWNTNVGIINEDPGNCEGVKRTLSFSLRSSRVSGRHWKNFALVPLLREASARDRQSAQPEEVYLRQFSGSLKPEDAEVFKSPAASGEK
hTRPA1, sequence (O75762 whole entry): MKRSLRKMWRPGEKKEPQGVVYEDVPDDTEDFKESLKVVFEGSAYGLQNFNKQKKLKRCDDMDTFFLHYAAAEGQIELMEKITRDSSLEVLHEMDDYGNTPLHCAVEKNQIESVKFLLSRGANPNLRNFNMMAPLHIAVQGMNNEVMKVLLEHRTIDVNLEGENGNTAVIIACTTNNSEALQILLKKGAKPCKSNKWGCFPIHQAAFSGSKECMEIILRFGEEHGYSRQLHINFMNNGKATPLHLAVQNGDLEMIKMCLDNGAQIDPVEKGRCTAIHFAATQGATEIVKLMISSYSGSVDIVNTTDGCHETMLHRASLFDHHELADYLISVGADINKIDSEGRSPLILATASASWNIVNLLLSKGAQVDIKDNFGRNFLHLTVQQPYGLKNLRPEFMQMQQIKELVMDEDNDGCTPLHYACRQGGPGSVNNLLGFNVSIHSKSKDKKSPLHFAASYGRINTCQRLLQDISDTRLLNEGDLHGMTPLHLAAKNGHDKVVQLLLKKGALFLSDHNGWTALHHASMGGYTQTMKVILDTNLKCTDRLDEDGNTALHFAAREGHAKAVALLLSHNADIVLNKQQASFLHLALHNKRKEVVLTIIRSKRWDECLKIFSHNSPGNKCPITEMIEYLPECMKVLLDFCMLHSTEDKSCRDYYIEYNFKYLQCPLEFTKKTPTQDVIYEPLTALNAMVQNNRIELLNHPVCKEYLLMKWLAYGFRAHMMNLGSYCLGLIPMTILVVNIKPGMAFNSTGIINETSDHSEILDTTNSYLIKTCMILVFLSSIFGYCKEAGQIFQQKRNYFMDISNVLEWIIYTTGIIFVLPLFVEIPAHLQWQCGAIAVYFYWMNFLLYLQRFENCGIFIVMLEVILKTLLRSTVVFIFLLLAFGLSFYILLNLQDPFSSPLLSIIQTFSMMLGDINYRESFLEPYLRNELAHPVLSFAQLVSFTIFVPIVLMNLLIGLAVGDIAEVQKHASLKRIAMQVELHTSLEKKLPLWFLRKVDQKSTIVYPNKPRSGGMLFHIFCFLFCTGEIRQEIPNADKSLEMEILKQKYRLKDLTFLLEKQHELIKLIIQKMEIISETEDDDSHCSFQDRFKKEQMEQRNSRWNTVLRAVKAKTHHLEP
hTRPV4, sequence (Q9HBA0 whole entry): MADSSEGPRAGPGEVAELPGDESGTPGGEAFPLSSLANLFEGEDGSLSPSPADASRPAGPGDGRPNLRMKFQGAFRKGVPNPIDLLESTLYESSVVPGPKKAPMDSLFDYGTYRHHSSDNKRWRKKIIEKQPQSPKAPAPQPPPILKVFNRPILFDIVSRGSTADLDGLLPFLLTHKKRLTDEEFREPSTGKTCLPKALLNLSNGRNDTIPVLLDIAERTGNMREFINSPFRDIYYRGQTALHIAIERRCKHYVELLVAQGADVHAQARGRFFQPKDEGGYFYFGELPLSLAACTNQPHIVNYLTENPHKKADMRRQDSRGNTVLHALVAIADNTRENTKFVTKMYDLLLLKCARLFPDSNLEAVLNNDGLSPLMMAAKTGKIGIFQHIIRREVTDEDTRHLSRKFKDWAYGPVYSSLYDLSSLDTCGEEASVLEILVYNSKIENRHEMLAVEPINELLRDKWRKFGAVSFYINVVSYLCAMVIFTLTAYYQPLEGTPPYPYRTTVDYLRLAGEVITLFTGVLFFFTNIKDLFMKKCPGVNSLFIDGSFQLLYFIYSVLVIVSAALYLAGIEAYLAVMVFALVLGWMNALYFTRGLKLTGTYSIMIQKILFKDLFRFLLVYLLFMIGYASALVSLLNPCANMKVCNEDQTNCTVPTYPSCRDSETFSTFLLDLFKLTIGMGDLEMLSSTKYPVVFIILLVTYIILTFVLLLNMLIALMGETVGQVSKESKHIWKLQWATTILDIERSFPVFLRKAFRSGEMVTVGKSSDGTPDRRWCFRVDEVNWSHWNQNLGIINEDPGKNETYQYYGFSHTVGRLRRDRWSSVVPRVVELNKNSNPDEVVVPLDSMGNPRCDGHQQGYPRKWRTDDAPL

SMILES: O=S(=O)(c1ccc(Cl)cn1)[C@H]1CCN(c2ccc(-c3ccccc3C3CC3)cc2CO)C1 [Example 5, (S)-(4-(3-((5-chloropyridin-2-yl)sulfonyl)pyrrolidin-1-yl)-2′-cyclopropyl-[1,1′-biphenyl]-3-yl) methanol]
inhibition at 0.3 µM (hTRPV3): 23.1%

SMILES: CC(C)c1ccccc1-c1ccc(N2CC[C@H](Sc3ccc(C(F)(F)F)cn3)C2)c(CO)c1 [Example 7, ((S)-(2′-isopropyl-4-(3-(5-(trifluoromethyl)pyridin-2-yl)thio)pyrrolidin-1-yl)-[1,1′-biphenyl]-3-yl) methanol]
inhibition at 0.3 µM (hTRPV3): 38%

SMILES: [O-][S+](c1ccc(Cl)cn1)[C@H]1CCN(c2ccc(-c3ccccc3C3CC3)cc2CO)C1 (stereo partly shown) [Example 6]
inhibition at 0.3 µM (hTRPV3): 4.73%

SMILES: CC(C)c1ccccc1-c1ccc(N2CC[C@H]([S+]([O-])c3ccc(Cl)cn3)C2)c(CO)c1 (stereo partly shown) [Example 3]
inhibition at 0.3 µM (hTRPV3): 9.96%

SMILES: CC(C)c1ccccc1-c1ccc(N2CC[C@H](S(=O)(=O)c3ccc(Cl)cn3)C2)c(CO)c1 [Example 2, ((S)-(4-(3-(5-chloropyridin-2-yl)sulfonyl)pyrrolidin-1-yl)-2′-isopropyl-[1,1′-biphenyl]-3-yl) methanol]
inhibition at 0.3 µM (hTRPV3): 18.6%

Further lines, results first:

inhibition at 0.3 µM (hTRPV1; 0.3 μM, patch clamp method, read-out: Inhibition rate (%) on hTRPV1): 0.48%
Selectivity ratio (hTRPV1) (hTRPV1; ratio of inhibition rate on TRPV3 to inhibition rate on hTRPV1, 0.3 μM): 152x
inhibition at 0.3 µM (hTRPV4; 0.3 μM, patch clamp method, read-out: Inhibition rate (%) on hTRPV4): 36.2%
Selectivity ratio (hTRPV4) (hTRPV4; ratio of inhibition rate on TRPV3 to inhibition rate on hTRPV4, 0.3 μM): 2x
inhibition at 0.3 µM (hTRPV3): 72.8%
Selectivity ratio (hTRPV3) (hTRPV3; ratio of inhibition rate on TRPV3 to inhibition rate on this channel, 0.3 μM): 1x
inhibition at 0.3 µM (hTRPA1; 0.3 μM, patch clamp method, read-out: Inhibition rate (%) on hTRPA1): 2.44%
Selectivity ratio (hTRPA1) (hTRPA1; ratio of inhibition rate on TRPV3 to inhibition rate on hTRPA1, 0.3 μM): 30x
SMILES: OCc1cc(-c2ccccc2C2CC2)ccc1N1CC[C@H](Sc2ccc(Cl)cn2)C1 [Example 4, ((S)-(4-(3-(5-chloropyridin-2-yl)thio)pyrrolidin-1-yl)-2′-cyclopropyl-[1,1′-biphenyl]-3-yl) methanol]

in vitro Clint [1]: 135.00 microliters/minute/milligrams
half-life at 1 μM ([1]; read-out: in vitro T1/2): 10.3 min
in vitro Clint [2]: 112.14 microliters/minute/milligrams
half-life at 1 μM ([2]; read-out: in vitro T1/2): 12.4 min
inhibition at 0.3 µM (hTRPV3): 71.6%
SMILES: CC(C)c1ccccc1-c1ccc(N2CC[C@H](Sc3ccc(Cl)cn3)C2)c(CO)c1 [Example 1, ((S)-(4-(3-(5-chloropyridin-2-yl)thio)pyrrolidin-1-yl)-2′-isopropyl-[1,1′-biphenyl]-3-yl) methanol]

inhibition at 0.3 µM (hTRPV3): 97.8%
SMILES: OCc1cc(-c2ccccc2C2CC2)ccc1N1CC[C@H](Sc2ccc(F)cn2)C1 [Example 10, ((S)-(4-(3-(5-fluoropyridin-2-yl)thio)pyrrolidin-1-yl)-2′-cyclopropyl-[1,1′-biphenyl]-3-yl) methanol]
